Values quoted from earlier work in PMC10713630, “Elucidation of the structural basis for ligand binding and translocation in conserved insect odorant receptor co-receptors” (Nature Communications, 2023).

Legend:
[1] = test system: MhraOR1 G169A; design: method as in Del Marmol et al. 3; details: ref Del Marmol et al. 3; cited from earlier work
[2] = test system: MhraOR5; design: method as in PMID 34349260; details: cited from earlier work
[3] = test system: MhraOR5 M209V; design: method as in Del Marmol et al. 3; details: ref Del Marmol et al. 3; cited from earlier work
[4] = test system: AgamOrco/AgamOR65; details: cited from earlier work

Structure (SMILES)	Effect on Eugenol-induced channel response [1]	Agonist of MhraOR5 [2]	Effect on DEET-induced channel response [3]	EC50 ([4]; AgamOrco/AgamOR65, ref Tailor et al. 1) [nM]	Potency relative to VUAA1 ([4]; ranked by EC50)
C=CCc1ccc(O)c(OC)c1 [Eugenol, eugenol]	I	agonists			
CCN(CC)C(=O)c1cccc(C)c1 [DEET]		agonists	I		
CC(C)c1ccc(NC(=O)CSc2nnc(-c3ccncc3)n2C2CC2)cc1 [VUAA4]				2100	greater potency
